Experimental data from article PMC11451537, “P2X7 receptors exhibit at least three modes of allosteric antagonism” (Science Advances, 2024).
Residue numbers refer to the chain shown, from its start.

Legend:
[1] = molecular target: T1, rP2X7-F88A (Rattus norvegicus, UniProt Q64663, F88A); test: TEVC inhibition dose-response, rP2X7-F88A mutant; type: cell-based; conditions: read-out: IC50 (inhibitory potency), F88A
T1 sequence (Q64663 1-595 F88A): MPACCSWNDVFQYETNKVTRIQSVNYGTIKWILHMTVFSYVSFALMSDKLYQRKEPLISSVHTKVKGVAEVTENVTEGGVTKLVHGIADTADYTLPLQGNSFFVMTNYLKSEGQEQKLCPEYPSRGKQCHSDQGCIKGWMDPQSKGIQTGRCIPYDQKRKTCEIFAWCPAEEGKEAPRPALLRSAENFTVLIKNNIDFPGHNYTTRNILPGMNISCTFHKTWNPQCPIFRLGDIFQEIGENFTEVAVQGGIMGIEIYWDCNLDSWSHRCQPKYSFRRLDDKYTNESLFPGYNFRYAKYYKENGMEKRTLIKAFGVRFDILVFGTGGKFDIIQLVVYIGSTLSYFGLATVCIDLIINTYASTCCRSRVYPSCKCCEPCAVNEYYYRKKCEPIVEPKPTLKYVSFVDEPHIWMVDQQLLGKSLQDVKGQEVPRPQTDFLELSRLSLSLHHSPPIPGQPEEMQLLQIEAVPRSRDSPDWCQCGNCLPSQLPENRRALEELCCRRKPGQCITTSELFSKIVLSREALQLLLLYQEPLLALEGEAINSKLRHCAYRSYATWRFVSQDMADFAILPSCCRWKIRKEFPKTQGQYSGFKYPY
Text: Structural determination of the full-length, wild-type rP2X7 was completed using a construct previously described containing no truncations or mutations ([16]). Furthermore, the rP2X7-WT construct used for electrophysiology experiments is unmodified full-length, wild-type rP2X7 with no green fluorescent protein (GFP), protease sites, or affinity tags present. The hP2X1-WT, hP2X2-WT, hP2X3-WT, hP2X4-WT, and hP2X7-WT constructs used for electrophysiology are similarly unmodified full-length, wild-type receptor constructs with no GFP, protease sites, or affinity tags present. Mutations to the rP2X7-WT construct used for electrophysiology experiments were made directly in the pcDNA3.1x plasmid. These constructs included the following: rP2X7-K297A, rP2X7-K297G, rP2X7-K297M, rP2X7-K297Q, rP2X7-K297V, rP2X7-Y298A, rP2X7-Y298G, rP2X7-Y298V, rP2X7-Y298L, rP2X7-R316A, rP2X7-R316G, rP2X7-R316Q, rP2X7-R316H, rP2X7-F88A, rP2X7-F103A, and rP2X7-Y295A.
To evaluate the inhibitory response of an antagonist for a dilution series, an initial excitatory signal was evoked at a subtype-specific concentration of ATP. Next, the antagonist was applied at a test concentration for 60 s and then coapplied at the same test concentration of the antagonist with the identical subtype-specific concentration of ATP. The antagonized signal was then normalized against the preceding excitatory signal evoked by ATP for each individual oocyte tested. The pre- and post-antagonist signals were evoked by 10 μM ATP for hP2X1, 10 μM ATP for hP2X2, 1 μM ATP for hP2X3, 50 μM ATP for hP2X4, and 100 μM ATP for P2X7. For the K297V mutation in rP2X7, pre- and post-antagonist signals were evoked by 300 μM ATP. Each dataset was then fit to a nonlinear regression named “[inhibitor] vs. response – Variable slope (four parameters)” in GraphPad Prism 9 to produce a sigmoidal curve and afford an IC50 value. Each singular condition was used to generate an average which is reported plus or minus its SD between three discrete trials.

[2] = molecular target: T2, rP2X7 (Rattus norvegicus, UniProt Q64663); test: TEVC recovery of current after complete inhibition (IC100), rP2X7; conditions: 120 s buffer wash, 100 μM ATP
T2 sequence (Q64663 1-595): T1 sequence (Q64663 1-595 F88A) with A88F
Description: Ecocyte Bioscience supplied defolliculated oocytes which were promptly resuspended in modified Barth’s solution containing the following: 88 mM NaCl, 1 mM KCl, 0.82 mM MgSO4, 0.33 mM Ca(NO3)2·4H2O, 0.41 mM CaCl2·2H2O, 2.4 mM NaHCO3, and 5 mM Hepes supplemented with amikacin 250 (mg/liter) and gentamycin (150 mg/liter). Xenopus laevis oocytes were then injected with either hP2X1 (50 nl of 100 ng/μl), hP2X2 (50 nl of 50 ng/μl), hP2X3 (50 nl of 400 ng/μl), hP2X4 (50 nl of 200 ng/μl), hP2X7 (50 nl of 10 ng/μl), or rP2X7 (50 nL of 20 ng/μl or 50 ng/μl) mRNA created from linearized full-length, wild-type or mutant pcDNA 3.1x according to the protocol provided in the mMESSAGE mMACHINE kit (Invitrogen). After injection, the oocytes were allowed to express protein for ~20 hours before recording was performed. Oocytes expressing hP2X4 were allowed to express protein for ~48 hours.
All TEVC data were acquired with an Ooctye Clamp OC-725C amplifier, pClamp 8.2 software, and a gravity-fed RSC-200 Rapid Solution Changer that flowed buffer at ~5 ml/min. For recording, Sutter filamented glass (10 cm in length with an inner diameter of 0.69 mm and an outer diameter of 1.2 mm) was used to impale oocytes and clamp the holding voltage at −60 mV. Recordings for hP2X1, hP2X2, hP2X7, and rP2X7 were performed in buffer with the following: 100 mM NaCl, 2.5 mM KCl, 0.1 mM EDTA, 0.1 mM flufenamic acid, and 5 mM Hepes at pH 7.4. Recordings for hP2X3 and hP2X4 were performed in buffer with the following: 10 mM Hepes (pH 7.4), 140 mM NaCl, 5 mM KCl, 2 mM CaCl2, 2 mM MgCl2, and 10 mM glucose. For TEVC experiments with P2X7, oocytes expressing hP2X7 or rP2X7 were facilitated with 100 μM ATP before recording the final data.
After testing an oocyte with a brief 100 μM ATP excitatory current, an antagonist is applied for 40, 120, or 240 s at IC100 calculated from IC50 values. The oocyte is then treated with 20 s of antagonist at the IC100 plus 100 μM ATP to see complete antagonism. This is followed by 120 s of washing with buffer, ending with a 20-s reapplication of 100 μM ATP. The signal after the reapplication of ATP was then compared to the initial excitatory current to afford a percentage of recovery of activation after complete antagonism. Experiments were run in triplicate. Trials were averaged and errors were reported as SD.

| SMILES | IC50 [1] [µM] | Recovery of activation (% of baseline current) ([2]; rP2X7, 40-s IC100 application) [%] | Recovery of activation (% of baseline current) ([2]; rP2X7, 120-s IC100 application) [%] | Recovery of activation (% of baseline current) ([2]; rP2X7, 240-s IC100 application) [%] |
| --- | --- | --- | --- | --- |
| Clc1cccc(-c2nnnn2Cc2cccnc2)c1Cl [A438079] | 14 ± 1 | 81 ± 5 | 48 ± 15 | 50 ± 11 |
| Clc1cccc(-n2nnnc2NCc2ccccc2Oc2ccccn2)c1Cl [A839977] | 1.9 ± 0.2 | 67 ± 6 | 6.7 ± 2 | 1.4 ± 0.3 |
| O=C(NCC12CC3CC(CC(C3)C1)C2)c1cc(CCCNCCCO)ccc1Cl [AZD9056] | 0.13 ± 0.01 | 82 ± 5 | 47 ± 9 | 29 ± 15 |
| CN1C(=O)CC[C@H]1C(=O)NCc1cccc(C(F)(F)F)c1Cl [GSK1482160] | 13 ± 3 | 69 ± 4 | 45 ± 6 | 29 ± 9 |
| O=C(NCC1(N2CCN(c3ccccc3)CC2)CCOCC1)c1cccnc1Sc1ccccc1 [JNJ47965567] | 0.8 ± 0.1 | 1.4 ± 0.2 | 1.6 ± 1 | 2 ± 1 |
| O=S(=O)(O)c1ccc(N=C2C=CC(=C(c3ccc(Nc4ccc(S(=O)(=O)O)cc4)cc3)c3ccc(Nc4ccc(S(=O)(=O)O)cc4)cc3)C=C2)cc1 [methyl blue] | 5 ± 2 | 53 ± 4 | 15 ± 5 | 4 ± 1 |
